Consider four molecules from publication PMC12183619, “A Phase 1 Safety Study of Evexomostat (SDX-7320) in Patients with Late-Stage Cancer: An Antiangiogenic, Insulin-Sensitizing Drug Conjugate Targeting METAP2” (Cancer Research Communications, 2025).

One data set deals with METAP2. Also on record: method as in PMID 16525646, PMID 9177176, PMID 10574784. Conditions: inactivates aminopeptidase activity; cited from earlier work.
The nature of data set [1]: Plasma pharmacokinetics by LC/MS-MS after subcutaneous dosing. The class given is in vivo, human. The procedure:
Blood samples were collected to enable PK bioanalyses at the following timepoints: cycles 1, 3, and 6: predose, 3, 6, 24, 48, and 96 hours after dosing, and days 8 (predose on the Q7D schedule), 15 (predose) and 22 (predose on the Q7D schedule); cycles 2, 4, 5, 7, and beyond: days 1 (predose), 8 (predose on the Q7D schedule), 15 (predose), and 22 (predose on the Q7D schedule). PK samples were collected on day 1 (predose, 3, 6, and 24 hours) for cycle 1 and then predose days 1 and 15 for even cycles and predose for odd cycles thereafter. Analysis of exploratory biomarkers was conducted using commercially available ELISA kits.
The levels of the released small-molecule METAP2 inhibitor SDX-7539 in plasma were measured using a validated LC/MS-MS method with a lower limit of quantification (LLOQ) of 10.0 pg/mL. The levels of the polymer–drug conjugate evexomostat in plasma were measured using a fit-for-purpose LC/MS-MS method. Target engagement was assessed at various times postdose in lysed whole blood using a validated ELISA designed to measure uninhibited METAP2 ([25]).
Analyses were conducted using SAS v 9.4 (SAS Institute) unless otherwise noted. AEs were coded in MedDRA v18.1 and analyzed by system organ class/preferred term. Treatment-related AEs (TRAE) were tabulated for all events occurring in two patients or more. Response was assessed using RECIST v1.1. PK analysis utilized WinNonlin v8.1 and a noncompartmental analysis approach.

The next data set deals with patients. Also on record: method as in PMID 10473076, PMID 12431966. Particulars: prior clinical trials; cited from earlier work.
Another data set relates to VEGF-D. Also on record: method as in PMID 17605814, PMID 24220935. Conditions: cited from earlier work.
Setting [2] is: released active moiety after subcutaneous evexomostat.

Regarding `CO[C@@H]1[C@H](OC(=O)/C=C/C=C/C=C/C=C/C(=O)O)CC[C@]2(CO2)[C@H]1[C@@]1(C)O[C@@H]1CC=C(C)C` [Fumagillin], the “binding to METAP2” value in the data set with METAP2 was “potently and irreversibly binds to METAP2”.

As to `CO[C@@H]1[C@H](OC(=O)NC2CCC(N)CC2)CC[C@]2(CO2)[C@H]1[C@@]1(C)O[C@@H]1CC=C(C)C` (some centres unmarked) [SDX-7539], in data set [1] (% change from baseline to C1D8 or C1D15), the “relationship of plasma Cmax and AUC in cycle 1 with reductions in platelets” value is reported as “potential relationship”. In addition, the “time with detectable plasma levels” value in data set [1] (following a single dose of evexomostat) worked out at 7 days. In addition, the “plasma exposure (Cmax, AUC0-t) vs dose” value in data set [1] (released SDX-7539 vs administered dose of SDX-7320) is “variability with increasing dose”. In data set [1] (setting [2]), the Tmax in plasma is 29 h and the “Tmax in plasma, range” value lay within 6 to 96 h.

Consider `CO[C@@H]1[C@H](OC(=O)NC(=O)CCl)CC[C@]2(CO2)[C@H]1[C@@]1(C)O[C@@H]1CC=C(C)C` [TNP-470], for which the “dose-limiting CNS toxicities” value with patients was “dose-limiting CNS toxicities were observed”.

Turning to `CCN(CC)CCNC(=O)c1c(C)[nH]c(/C=C2\C(=O)Nc3ccc(F)cc32)c1C` [sunitinib], the “change in circulating VEGF-D” value in the data set on VEGF-D is “increase circulating VEGF-D”.
